Data as given in patent publication US11999758B2, “Inhibitors of the YAP/TAZ-TEAD interaction and their use in the treatment of cancer” (INVENTIVA, priority 2018, dated 2024).

Tests used:
YAP-TEAD interaction = target: T1, YAP-TEAD interaction (Homo sapiens, UniProt P28347); test: Cell-based TEAD-GAL4 transactivation assay (luciferase reporter); settings: HEK293 cells transfected with TEAD1-Gal4, YAP mutant (S127A, S397A) and luciferase reporter, compounds 0.1 μM to 30 μM; for Emax: HEK293, 24 h, read-out: TEAD-GAL4 Transactivation activity Max Act; for IC50: 24 h
T1 construct: expressed in transfected cells; host or cells: HEK293 GripTite 293 MSR (Invitrogen R795-07)
Outline: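 HEK293 cells transiently transfected with Gal4-DBD–full-length human TEAD1, full-length YAP S127A/S397A (YAP/TEAD ratio 10) and a 5×GAL4-RE TK-luciferase reporter. Six hours later, compounds added semi-log from 0.1 to 30 μM (DMSO 0.5% control) for 24 h. Luciferase read; IC50 from 3-parameter fit.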

Met5A cell line = test: Cell proliferation in YAP-independent cell line (EdU); type: cell-based; settings: FIG. 1 (▪)
Experimental: (§1) The tumor cell growth inhibitory activity of the YAP-TEAD interaction inhibitors was evaluated in NCI-H-2052 mesothelioma cell line harboring a NF2 mutation. This cell line was selected based on its mutational status and the ability of a siRNA directed against YAP, TAZ or TEAD1-4 to inhibit cell proliferation. The nuclear localization of YAP at confluence was also taken into account. Based on these observations we were able to classify several “YAP dependent cells” where YAP is clearly nuclear and in which a cell growth inhibition is observed by using siRNA (NCI-H-2052, SKOV-3, ACHN, A549) and the “YAP independent cells” where YAP is preferentially located in the cytoplasm and in which no inhibition of cell growth is observed by using a siRNA (SW620, Met-5a). […] After one day growth in the starvation medium, cells were incubated with compounds. The starting concentration was 30 μM and serial dilutions in DMSO and medium were performed until 0.1 μM to achieve a final DMSO concentration of 0.5%. The cells were then allowed to grow for 3 days, and then, EdU (Invitrogen, Molecular Probe) was added in each well at a final concentration of 10 μM and the cells were returned to the incubator for an additional 24 h. The starvation medium was removed and 100 μl of PFA 4% containing Hoechst dye was adding in each well to fix the cells. Plates were then incubated at rt for 15 min, washed twice with PBS and the cells were permeabilized by adding 100 μl per well of triton-100 containing 0.3% BSA. After 20 min, cells were washed with PBS and EdU detection was performed according to the instructions of the manufacturer. Image acquisition was performed using the ImageXpress Micro and analyzed using the MetaXpress software (Molecular Device). Results were expressed as a percent of inhibition (%) of the cell proliferation values obtained with 0.5% DMSO treatment alone. The cellular response was determined by fitting the concentration response curves using a 3 parameter curve fit equation and determining the concentration that inhibited cell growth between 50% and 100%.

[1] = tested on: NCI-H2052 mesothelioma cell; test: Inhibition of malignant mesothelioma tumor cell growth (EdU proliferation); type: cell-based; settings: NF2 mutated cell line; FIG. 1 (x)
Experimental: as §1

T1 sequence (P28347 whole entry, the tested form may be a part): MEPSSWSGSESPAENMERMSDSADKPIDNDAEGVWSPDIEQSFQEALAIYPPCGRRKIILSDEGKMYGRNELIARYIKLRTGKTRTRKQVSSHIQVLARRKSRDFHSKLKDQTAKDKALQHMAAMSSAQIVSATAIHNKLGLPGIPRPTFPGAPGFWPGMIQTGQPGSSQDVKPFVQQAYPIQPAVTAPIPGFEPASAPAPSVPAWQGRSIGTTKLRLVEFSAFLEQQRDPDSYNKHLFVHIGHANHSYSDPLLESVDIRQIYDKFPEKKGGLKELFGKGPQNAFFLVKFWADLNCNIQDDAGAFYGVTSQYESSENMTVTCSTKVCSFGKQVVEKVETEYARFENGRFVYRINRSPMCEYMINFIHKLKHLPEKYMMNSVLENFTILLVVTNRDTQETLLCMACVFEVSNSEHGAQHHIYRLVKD

| Compound | melting point [°C] | Emax (YAP-TEAD interaction) [%] | IC50 (YAP-TEAD interaction) [nM] | effect in the Met5A cell line (Met5A cell line) | NCI-H2052 mesothelioma cell proliferation [1] |
| --- | --- | --- | --- | --- | --- |
| COc1cc(/C=N/N(C)c2ncnc3c(C)csc23)ccc1B(O)O [Ex71, [2-methoxy-4-[(E)-[methyl-(7-methylthieno[3,2-d]pyrimidin-4-yl) hydrazono]methyl]phenyl]boronic acid] | 237 to 267 | 68 | 1140 |  |  |
| Cc1csc2c(N(C)/N=C/c3ccc4c(c3)COB4O)ncnc12 [Ex77, N-[(E)-(1-hydroxy-3H-2,1-benzoxaborol-5-yl)methyleneamino]-N,7-dimethyl-thieno[3,2-d]pyrimidin-4-amine] | 231 | 82 | 320 |  |  |
| CCN(/N=C/c1ccc2c(c1)COB2O)c1ncnc2c(C)n[nH]c12 [Ex80, N-ethyl-N-[(E)-(1-hydroxy-3H-2,1-benzoxaborol-5-yl)methyleneamino]-3-methyl-1H-pyrazolo[4,3-d]pyrimidin-7-amine] | 265 to 276 | 69 | 1960 |  |  |
| CCN(/N=C/c1ccc2c(c1)COB2O)c1ncnc2nc(SC)sc12.Cl [Ex83, N-ethyl-N-[(E)-(1-hydroxy-3H-2,1-benzoxaborol-5-yl)methyleneamino]-2-methylsulfanyl-thiazolo[4,5-d]pyrimidin-7-amine hydrochloride] | 248 to 264 | 94 | 230 |  |  |
| CSc1nc2ncnc(N(CC(C)C)/N=C/c3ccc4c(c3)COB4O)c2s1 [Ex92, N-[(E)-(1-hydroxy-3H-2,1-benzoxaborol-5-yl)methyleneamino]-N-isobutyl-2-methylsulfanyl-thiazolo[4,5-d]pyrimidin-7-amine] | 214 to 246 | 91 | 170 |  |  |
| COCCN(/N=C/c1ccc2c(c1)COB2O)c1ncnc2c(C)csc12 [Ex94, N-[(E)-(1-hydroxy-3H-2,1-benzoxaborol-5-yl)methyleneamino]-N-(2-methoxyethyl)-7-methyl-thieno[3,2-d]pyrimidin-4-amine] | 240 to 253 | 80 | 460 |  |  |
| COCCN(/N=C/c1ccc2c(c1)COB2O)c1ncnc2nc(SC)sc12.Cl [Ex95, N-[(E)-(1-hydroxy-3H-2,1-benzoxaborol-5-yl)methyleneamino]-N-(2-methoxyethyl)-2-methylsulfanyl-thiazolo[4,5-d]pyrimidin-7-amine, hydrochloride] | 252 to 264 | 85 | 130 |  |  |
| CN(/N=C/c1ccc2c(c1)COB2O)c1ncnc2c1[nH]c(=O)n2C [Ex98, 6-[[(E)-(1-hydroxy-3H-2,1-benzoxaborol-5-yl)methyleneamino]-methyl-amino]-9-methyl-7H-purin-8-one] | 180 to 200 | 86 | 1310 |  |  |
| CN(/N=C/c1ccc2c(c1)COB2O)c1ncnc2c1CC(=O)N2C [Ex99, 4-[[(E)-(1-hydroxy-3H-2,1-benzoxaborol-5-yl)methyleneamino]-methyl-amino]-7-methyl-5H-pyrrolo[2,3-d]pyrimidin-6-one] | 288 to 307 | 91 | 2120 |  |  |
| CN(/N=C/c1ccc2c(c1)COB2O)c1ncnc2c1[nH]c(=O)n2C12CC(C1)C2 [Ex110, 9-(3-bicyclo[1.1.1]pentanyl)-6-[[(E)-(1-hydroxy-3H-2,1-benzoxaborol-5-yl)methyleneamino]-methyl-amino]-7H-purin-8-one] | 259 to 270 | 81 | 2410 |  |  |
| Cc1csc2c(N3N=C(c4ccc5c(c4)COB5O)CCC3C)ncnc12 (stereo not drawn) [Ex118, 4-[6-(1-hydroxy-3H-2,1-benzoxaborol-5-yi)-3-methyl-4,5-dihydro-3H-pyridazin-2-yl]-7-methyl-thieno[3,2-d]pyrimidine] |  | 86 | 270 | without showing any effect | inhibited |
| COCCN(/N=C/c1ccc2c(c1)COB2O)C1=NS(=O)(=O)c2ccccc21 [Ex 24, N-[(E)-(1-hydroxy-3H-2,1-benzoxaborol-5-yl)methyleneamino]-N-(2-methoxyethyl)-1,1-dioxo-1,2-benzothiazol-3-amine] | 227 | 76 | 5190 |  |  |
| CCN(/N=C/c1ccc2c(c1)COB2O)c1ncnc2[nH]ccc12 [Ex 39, N-ethyl-N-[(E)-(1-hydroxy-3H-2,1-benzoxaborol-5-yl)methyleneamino]-7H-pyrrolo[2,3-d]pyrimidin-4-amine] | 245 | 81 | 1200 |  |  |
| CCN(/N=C/c1ccc2c(c1)COB2O)c1ncnc2c(C)csc12 [Ex 42, N-ethyl-N-[(E)-(1-hydroxy-3H-2,1-benzoxaborol-5-yl)methyleneamino]-7-methyl-thieno[3,2-d]pyrimidin-4-amine] |  | 81 | 260 | without showing any effect | inhibited |
| CCN(/N=C/c1ccc2c(c1)COB2O)c1ncnc2occc12 [Ex 43, N-ethyl-N-[(E)-(1-hydroxy-3H-2,1-benzoxaborol-5-yl)methyleneamino]furo[2,3-d]pyrimidin-4-amine] | 225 | 78 | 420 |  |  |

More lines, in order of falling IC50 (YAP-TEAD interaction), values ahead:

| melting point [°C] | Emax (YAP-TEAD interaction) [%] | IC50 (YAP-TEAD interaction) [nM] | Compound | effect in the Met5A cell line (Met5A cell line) | NCI-H2052 mesothelioma cell proliferation [1] |
| --- | --- | --- | --- | --- | --- |
|  | 86 | 7310 | COc1cc(/C=N/N(CC(C)C)C2=NS(=O)(=O)c3ccccc32)ccc1B(O)O [Ex 1, [4-[(E)-[(1,1-dioxo-1,2-benzothiazol-3-yl)-isobutyl-hydrazono]methyl]-2-methoxy-phenyl]boronic acid] | without showing any effect | inhibited |
| 218 | 83 | 6460 | CCN(/N=C/c1ccc2c(c1)COB2O)C1=NS(=O)(=O)c2ccccc21 [Ex 27, N-ethyl-N-[(E)-(1-hydroxy-3H-2,1-benzoxaborol-5-yl)methyleneamino]-1,1-dioxo-1,2-benzothiazol-3-amine] |  |  |
| 182 | 90 | 4130 | Cc1ccc2c(c1)S(=O)(=O)N=C2N(CC(C)C)/N=C/c1ccc2c(c1)COB2O [Ex 31, N-[(E)-(1-hydroxy-3H-2,1-benzoxaborol-5-yl)methyleneamino]-N-isobutyl-6-methyl-1,1-dioxo-1,2-benzothiazol-3-amine] |  |  |
| 183 to 189 | 89 | 2370 | CCN(/N=C/c1ccc2c(c1)COB2O)c1ncnc2nc(N3CCOCC3)sc12 [Ex82, N-ethyl-N-[(E)-(1-hydroxy-3H-2,1-benzoxaborol-5-yl)methyleneamino]-2-morpholino-thiazolo[4,5-d]pyrimidin-7-amine] |  |  |
|  | 87 | 1340 | COc1cc(/C=N/N(CC(C)C)c2ncnc3ccsc23)ccc1B(O)O [Ex 20, [4-[(E)-[isobutyl(thieno[3,2-d]pyrimidin-4-yl)hydrazono]methyl]-2-methoxy-phenyl] boronic acid] | without showing any effect | inhibited |
| 247 to 253 | 90 | 1010 | CCN(/N=C/c1ccc2c(c1)COB2O)c1ncnc2nc(N(C)C)sc12 [Ex79, N7-ethyl-N7-[(E)-(1-hydroxy-3H-2,1-benzoxaborol-5-yl)methyleneamino]-N2,N2-dimethyl-thiazolo[4,5-d]pyrimidine-2,7-diamine] |  |  |
| 250 to 260 | 86 | 960 | CN(/N=C/c1ccc2c(c1)COB2O)c1ncnc2c1cnn2C [Ex76, N-[(E)-(1-hydroxy-3H-2,1-benzoxaborol-5-yl)methyleneamino]-N,1-dimethyl-pyrazolo[3,4-d]pyrimidin-4-amine] |  |  |
| 262 to 286 | 94 | 900 | CSc1nc2ncnc(N(C)/N=C/c3ccc4c(c3)COB4O)c2s1 [Ex75, N-[(E)-(1-hydroxy-3H-2,1-benzoxaborol-5-yl)methyleneamino]-N-methyl-2-methylsulfanyl-thiazolo[4,5-d]pyrimidin-7-amine] | without showing any effect | inhibited |
